Experiments:
Assay in all cases: cells
DOK = assay type: functional, cell-based; conditions: Homo sapiens;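 note: cell viability assay read-out, values reflect inhibition of cell growth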
HT = assay type: functional, cell-based, Homo sapiens; conditions: Homo sapiens, HT
U-118-MG = assay type: functional, cell-based; conditions: Homo sapiens
NCI-H1395 = assay type: functional, cell-based, Homo sapiens; conditions: Homo sapiens, NCI-H1395;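 note: cell viability assay read-out quantifying reduced proliferation of human NCI-H1395 cells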
NCI-H1092 = assay type: functional, cell-based, Homo sapiens; conditions: Homo sapiens, NCI-H1092;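 note: cell growth inhibition measured with a cell viability assay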
A388 = assay type: functional, cell-based; conditions: Homo sapiens;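 note: growth inhibition of human A388 cells, read out with a cell viability assay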
NCI-H226 = assay type: functional, cell-based, Homo sapiens; conditions: Homo sapiens, NCI-H226;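 note: cell viability read-out used to gauge growth inhibition of the cells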
NCI-H1581 = assay type: functional, cell-based, Homo sapiens; conditions: Homo sapiens, NCI-H1581;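 note: cell growth inhibition read out by a viability assay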
OCI-AML2 = assay type: functional, cell-based, Homo sapiens; conditions: Homo sapiens, OCI-AML2;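 note: growth inhibition of OCI-AML2 cells, read out with a cell viability assay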
MSTO-211H = assay type: functional, cell-based, Homo sapiens; conditions: Homo sapiens, MSTO-211H
NB5 = assay type: functional, cell-based, Homo sapiens; conditions: Homo sapiens, NB5;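 note: growth inhibition of NB5 cells, read out as cell viability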
MPP-89 = assay type: functional, cell-based, Homo sapiens; conditions: Homo sapiens, MPP-89;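 note: growth inhibition of human MPP-89 cells, read out with a cell viability assay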
IST-SL1 = assay type: functional, cell-based, Homo sapiens; conditions: Homo sapiens, IST-SL1;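 note: growth inhibition of human IST-SL1 cells, read out with a cell viability assay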
SW872 = assay type: functional, cell-based, Homo sapiens; conditions: Homo sapiens, SW872;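 note: growth inhibition of SW872 cells, read out by a viability assay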
BB30-HNC = assay type: functional, cell-based, Homo sapiens; conditions: Homo sapiens, BB30-HNC;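 note: growth inhibition of the cultured cell line, read out by a cell viability assay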
HEL = assay type: functional, cell-based, Homo sapiens; conditions: Homo sapiens, HEL;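 note: growth inhibition of HEL cells, read out with a cell viability assay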
NCI-H1623 = assay type: functional, cell-based; conditions: Homo sapiens;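 note: cell viability assay used as the read-out for growth inhibition of NCI-H1623 cells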
KLE = assay type: functional, cell-based; conditions: Homo sapiens;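 note: growth inhibition of human KLE cells, read out with a cell viability assay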
NCI-H1838 = assay type: functional, cell-based, Homo sapiens; conditions: Homo sapiens, NCI-H1838;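 note: growth inhibition of NCI-H1838 cells, determined with a cell viability readout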
ES7 = assay type: functional, cell-based, Homo sapiens; conditions: Homo sapiens, ES7;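 note: growth inhibition of cultured human ES7 cells, read out as cell viability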
HDLM-2 = assay type: functional, cell-based, Homo sapiens; conditions: Homo sapiens, HDLM-2;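 note: cell viability assay measuring suppression of HDLM-2 proliferation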
EW-11 = assay type: functional, cell-based, Homo sapiens; conditions: Homo sapiens, EW-11;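 note: growth inhibition of human EW-11 cells, measured with a cell viability assay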
SK-UT-1 = assay type: functional, cell-based, Homo sapiens; conditions: Homo sapiens, SK-UT-1;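 note: growth inhibition of SK-UT-1 cells, measured by a cell viability assay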
NCI-H1770 = assay type: functional, cell-based, Homo sapiens; conditions: Homo sapiens, NCI-H1770;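 note: growth inhibition of NCI-H1770 cells determined with a viability readout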
KINGS-1 = assay type: functional, cell-based, Homo sapiens; conditions: Homo sapiens, KINGS-1;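 note: cell viability assay measuring suppression of KINGS-1 cell growth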
TE-9 = assay type: functional, cell-based, Homo sapiens; conditions: Homo sapiens, TE-9;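 note: cell growth inhibition, measured with a cell viability readout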
LS-513 = assay type: functional, cell-based, Homo sapiens; conditions: Homo sapiens, LS-513
ACN = assay type: functional, cell-based, Homo sapiens; conditions: Homo sapiens, ACN;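 note: growth inhibition of the human ACN cell line, read out via cell viability testing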
GAK = assay type: functional, cell-based, Homo sapiens; conditions: Homo sapiens, GAK;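 note: cell growth inhibition read out by a cell viability assay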
KGN = assay type: functional, cell-based, Homo sapiens; conditions: Homo sapiens, KGN;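 note: growth inhibition of KGN cells, read out with a cell viability assay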
SW982 = assay type: functional, cell-based; conditions: Homo sapiens;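 note: growth inhibition of SW982 cells, read out with a cell viability assay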
D-247MG = assay type: functional, cell-based; conditions: Homo sapiens
NCI-H69 = assay type: functional, cell-based, Homo sapiens; conditions: Homo sapiens, NCI-H69;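 note: growth inhibition of the cell line, read out with a cell viability assay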
DU-4475 = assay type: functional, cell-based, Homo sapiens; conditions: Homo sapiens, DU-4475
no-10 = assay type: functional, cell-based, Homo sapiens; conditions: Homo sapiens;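 note: growth inhibition of no-10 cells, read out with a cell viability assay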
QIMR-WIL = assay type: functional, cell-based, Homo sapiens; conditions: Homo sapiens, QIMR-WIL;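 note: growth inhibition of QIMR-WIL cells, read out with a cell viability assay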
A704 = assay type: functional, cell-based; conditions: Homo sapiens;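 note: growth inhibition of human A704 cells, read out with a cell viability assay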
D-502MG = assay type: functional, cell-based, Homo sapiens; conditions: Homo sapiens, D-502MG
DOHH-2 = assay type: functional, cell-based, Homo sapiens; conditions: Homo sapiens, DOHH-2;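 note: growth inhibition of human DOHH-2 cells, read out with a cell viability assay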
IST-MEL1 = assay type: functional, cell-based, Homo sapiens; conditions: Homo sapiens, IST-MEL1;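 note: growth inhibition of the cell line, read out with a cell viability assay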
LAN-6 = assay type: functional, cell-based, Homo sapiens; conditions: Homo sapiens, LAN-6;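 note: growth inhibition of LAN-6 cells, determined with a cell viability assay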
MMAC-SF = assay type: functional, cell-based; conditions: Homo sapiens;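 note: growth inhibition of human MMAC-SF cells, read out with a cell viability assay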
KY821 = assay type: functional, cell-based, Homo sapiens; conditions: Homo sapiens, KY821;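 note: growth inhibition of human KY821 cells, read out by a cell viability assay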
LC-2-ad = assay type: functional, cell-based, Homo sapiens; conditions: Homo sapiens, LC-2-ad;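 note: growth inhibition of human LC-2-ad cells, read out with a cell viability assay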
TE-8 = assay type: functional, cell-based, Homo sapiens; conditions: Homo sapiens, TE-8;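 note: growth inhibition of TE-8 cells, measured with a cell viability readout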
EW-16 = assay type: functional, cell-based, Homo sapiens; conditions: Homo sapiens, EW-16;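 note: growth inhibition of human EW-16 cells, read out as cell viability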
TE-5 = assay type: functional, cell-based, Homo sapiens; conditions: Homo sapiens, TE-5;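 note: inhibition of cell growth, read out by a cell viability assay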
EM-2 = assay type: functional, cell-based, Homo sapiens; conditions: Homo sapiens, EM-2;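 note: growth inhibition of EM-2 cells, read out with a cell viability assay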
no-11 = assay type: functional, cell-based, Homo sapiens; conditions: Homo sapiens;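 note: growth inhibition of human NO-11 cells, read out with a cell viability assay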
OCUB-M = assay type: functional, cell-based; conditions: Homo sapiens;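 note: growth inhibition of the cancer cell line, read out through a cell viability assay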
BV-173 = assay type: functional, cell-based, Homo sapiens; conditions: Homo sapiens, BV-173
EW-18 = assay type: functional, cell-based, Homo sapiens; conditions: Homo sapiens, EW-18; read-out: IC50;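 note: growth inhibition of EW-18 cells, read out by a cell viability assay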

**Q.** `Cc1ccc(-n2nc(C(C)(C)C)cc2NC(=O)Nc2ccc(OCCN3CCOCC3)c3ccccc23)cc1` [DORAMAPIMOD] was tested. Which IC50 (DOK) did it give?
**A.** > 10 µM

**Q.** What about the IC50 (HT) of the same molecule?
**A.** > 10 µM

**Q.** What about the IC50 (U-118-MG) of the same molecule?
**A.** > 10 µM

**Q.** What about the IC50 (NCI-H1395) of the same molecule?
**A.** > 10 µM

**Q.** And the IC50 (NCI-H1092)?
**A.** > 10 µM

**Q.** What about the IC50 (A388) of the same molecule?
**A.** > 10 µM

**Q.** What about the IC50 (NCI-H226) of the same molecule?
**A.** > 10 µM

**Q.** And the IC50 (NCI-H1581)?
**A.** > 10 µM

**Q.** What about the IC50 (OCI-AML2) of the same molecule?
**A.** > 10 µM

**Q.** What about the IC50 (MSTO-211H) of the same molecule?
**A.** > 10 µM

**Q.** And the IC50 (NB5)?
**A.** > 10 µM

**Q.** What about the IC50 (MPP-89) of the same molecule?
**A.** 8.46 µM

**Q.** What about the IC50 (IST-SL1) of the same molecule?
**A.** > 10 µM

**Q.** What about the IC50 (SW872) of the same molecule?
**A.** > 10 µM

**Q.** And the IC50 (BB30-HNC)?
**A.** > 10 µM

**Q.** And the IC50 (HEL)?
**A.** > 10 µM

**Q.** And the IC50 (NCI-H1623)?
**A.** > 10 µM

**Q.** And the IC50 (KLE)?
**A.** > 10 µM

**Q.** What about the IC50 (NCI-H1838) of the same molecule?
**A.** > 10 µM

**Q.** What about the IC50 (ES7) of the same molecule?
**A.** > 10 µM

**Q.** And the IC50 (HDLM-2)?
**A.** > 10 µM

**Q.** What about the IC50 (EW-11) of the same molecule?
**A.** > 10 µM

**Q.** What about the IC50 (SK-UT-1) of the same molecule?
**A.** > 10 µM

**Q.** And the IC50 (NCI-H1770)?
**A.** > 10 µM

**Q.** And the IC50 (KINGS-1)?
**A.** > 10 µM

**Q.** And the IC50 (TE-9)?
**A.** > 10 µM

**Q.** And the IC50 (LS-513)?
**A.** > 10 µM

**Q.** And the IC50 (ACN)?
**A.** > 10 µM

**Q.** What about the IC50 (KGN) of the same molecule?
**A.** > 10 µM

**Q.** And the IC50 (SW982)?
**A.** > 10 µM

**Q.** What about the IC50 (D-247MG) of the same molecule?
**A.** > 10 µM

**Q.** And the IC50 (NCI-H69)?
**A.** > 10 µM

**Q.** And the IC50 (DU-4475)?
**A.** > 10 µM

**Q.** And the IC50 (no-10)?
**A.** > 10 µM

**Q.** What about the IC50 (QIMR-WIL) of the same molecule?
**A.** > 10 µM

**Q.** And the IC50 (A704)?
**A.** > 10 µM

**Q.** What about the IC50 (D-502MG) of the same molecule?
**A.** > 10 µM

**Q.** What about the IC50 (DOHH-2) of the same molecule?
**A.** > 10 µM

**Q.** What about the IC50 (IST-MEL1) of the same molecule?
**A.** > 10 µM

**Q.** What about the IC50 (LAN-6) of the same molecule?
**A.** > 10 µM

**Q.** What about the IC50 (MMAC-SF) of the same molecule?
**A.** > 10 µM

**Q.** And the IC50 (KY821)?
**A.** > 10 µM

**Q.** What about the IC50 (LC-2-ad) of the same molecule?
**A.** > 10 µM

**Q.** What about the IC50 (TE-8) of the same molecule?
**A.** > 10 µM

**Q.** And the IC50 (EW-16)?
**A.** > 10 µM

**Q.** What about the IC50 (TE-5) of the same molecule?
**A.** > 10 µM

**Q.** What about the IC50 (EM-2) of the same molecule?
**A.** > 10 µM

**Q.** And the IC50 (no-11)?
**A.** > 10 µM

**Q.** What about the IC50 (OCUB-M) of the same molecule?
**A.** > 10 µM

**Q.** And the IC50 (BV-173)?
**A.** > 10 µM

**Q.** And the IC50 (EW-18)?
**A.** > 10 µM

**Q.** Which IC50 (DOK) does the source give for `CC1=C(/C=C/C(C)=C/C=C/C(C)=C/C(=O)O)C(C)(C)CCC1` [TRETINOIN] here?
**A.** > 10 µM

**Q.** And the IC50 (HT)?
**A.** > 10 µM

**Q.** What about the IC50 (U-118-MG) of the same molecule?
**A.** > 10 µM

**Q.** What about the IC50 (NCI-H1395) of the same molecule?
**A.** > 10 µM

**Q.** What about the IC50 (NCI-H1092) of the same molecule?
**A.** > 10 µM

**Q.** And the IC50 (A388)?
**A.** > 10 µM

**Q.** What about the IC50 (NCI-H226) of the same molecule?
**A.** > 10 µM

**Q.** And the IC50 (NCI-H1581)?
**A.** > 10 µM

**Q.** What about the IC50 (OCI-AML2) of the same molecule?
**A.** > 10 µM

**Q.** And the IC50 (MSTO-211H)?
**A.** > 10 µM

**Q.** And the IC50 (NB5)?
**A.** > 10 µM

**Q.** What about the IC50 (MPP-89) of the same molecule?
**A.** > 10 µM

**Q.** What about the IC50 (IST-SL1) of the same molecule?
**A.** > 10 µM

**Q.** And the IC50 (SW872)?
**A.** > 10 µM

**Q.** What about the IC50 (BB30-HNC) of the same molecule?
**A.** > 10 µM

**Q.** And the IC50 (HEL)?
**A.** > 10 µM

**Q.** What about the IC50 (NCI-H1623) of the same molecule?
**A.** > 10 µM

**Q.** What about the IC50 (KLE) of the same molecule?
**A.** > 10 µM

**Q.** What about the IC50 (NCI-H1838) of the same molecule?
**A.** > 10 µM

**Q.** And the IC50 (ES7)?
**A.** > 10 µM

**Q.** And the IC50 (HDLM-2)?
**A.** > 10 µM

**Q.** And the IC50 (EW-11)?
**A.** > 10 µM

**Q.** And the IC50 (SK-UT-1)?
**A.** > 10 µM

**Q.** What about the IC50 (NCI-H1770) of the same molecule?
**A.** > 10 µM

**Q.** What about the IC50 (KINGS-1) of the same molecule?
**A.** > 10 µM

**Q.** And the IC50 (TE-9)?
**A.** > 10 µM

**Q.** What about the IC50 (LS-513) of the same molecule?
**A.** > 10 µM

**Q.** And the IC50 (ACN)?
**A.** 1.65 µM

**Q.** What about the IC50 (GAK) of the same molecule?
**A.** > 10 µM

**Q.** And the IC50 (KGN)?
**A.** > 10 µM

**Q.** And the IC50 (SW982)?
**A.** > 10 µM

**Q.** What about the IC50 (D-247MG) of the same molecule?
**A.** > 10 µM

**Q.** What about the IC50 (NCI-H69) of the same molecule?
**A.** 2.27 µM

**Q.** And the IC50 (DU-4475)?
**A.** > 10 µM

**Q.** And the IC50 (no-10)?
**A.** > 10 µM

**Q.** What about the IC50 (QIMR-WIL) of the same molecule?
**A.** 6.62 µM

**Q.** And the IC50 (A704)?
**A.** > 10 µM

**Q.** What about the IC50 (D-502MG) of the same molecule?
**A.** > 10 µM

**Q.** What about the IC50 (DOHH-2) of the same molecule?
**A.** > 10 µM

**Q.** What about the IC50 (IST-MEL1) of the same molecule?
**A.** > 10 µM

**Q.** What about the IC50 (LAN-6) of the same molecule?
**A.** > 10 µM

**Q.** And the IC50 (MMAC-SF)?
**A.** > 10 µM

**Q.** And the IC50 (KY821)?
**A.** 5.7 µM

**Q.** And the IC50 (LC-2-ad)?
**A.** > 10 µM

**Q.** And the IC50 (TE-8)?
**A.** > 10 µM

**Q.** And the IC50 (EW-16)?
**A.** > 10 µM

**Q.** What about the IC50 (TE-5) of the same molecule?
**A.** > 10 µM

**Q.** What about the IC50 (EM-2) of the same molecule?
**A.** 5.33 µM

**Q.** What about the IC50 (no-11) of the same molecule?
**A.** > 10 µM

**Q.** What about the IC50 (OCUB-M) of the same molecule?
**A.** > 10 µM

**Q.** And the IC50 (BV-173)?
**A.** 1.6 µM

**Q.** What about the IC50 (EW-18) of the same molecule?
**A.** > 10 µM

Reference: ChEMBL document CHEMBL1201861, “Genomics of Drug Sensitity in Cancer screening data, Wellcome Trust Sanger Institute”
